According to ChEMBL document CHEMBL1201862, “PubChem BioAssay data set” (2004):
Values belong to the molecule of their own block, whether it stands above or below them. Activity calls are given as the source filed them.

What was measured:
[1] = blockers of HIV-1 envelope-mediated cell-cell fusion – cherry-pick, dose response (AID 652057); type: functional, cell-based
[2] = molecular target: Paired box protein Pax-8 (Homo sapiens, UniProt Q06710); assay: PAX8 transcriptional activity inhibition in RMG-I – RMG-I cells, luciferase, cherry-pick, dose response (AID 687027); type: functional, cell-based;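 further: luciferase reporter driven by Pax8 target thyroperoxidase promoter measured by SteadyGlo luminescence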
[3] = inhibitors acting on PAX2 in cells – cell-based, plate reader, dry powder samples, selectivity assay for PAX8 inhibitor project, dose response (AID 743048); type: functional;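 further: HEK293 cells carrying a WT1 promoter luciferase reporter driven by expressed Pax2; potency is for inhibition of Pax2 driven reporter signal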
[4] = OVCAR-3 cell viability loss – plate reader, dry powder samples, PAX8 inhibitor project, dose response (AID 743044); type: functional, cell-based
[5] = PAX5 cellular inhibition readout – cell-based, plate reader, dry powder samples, selectivity assay for PAX8 inhibitor project, dose response (AID 743047); type: functional;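 further: HEK293 cells carrying a Pax5 driven CD19 promoter luciferase reporter; potency of inhibitors that lower reporter luminescence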
[6] = OVCAR4 cell viability loss – plate reader, dry powder, SA11, cytotoxicity control for PAX8 inhibitor project, dose response (AID 743150); type: functional, cell-based; conditions: OVCAR-4
[7] = COV434 cell viability loss – plate reader, dry powder, SA7, cytotoxicity control for PAX8 inhibitor project, dose response (AID 743145); type: functional, cell-based
[8] = OV-90 cell viability loss – plate reader, dry powder, SA8, PAX8 inhibitor project, dose response (AID 743149); type: functional, cell-based
[9] = OVCAR8 cell viability loss – plate reader, dry powder samples, PAX8 project, dose response (AID 743197); type: functional, cell-based; conditions: OVCAR-8
[10] = PAX8-dependent cell viability loss – plate reader, dry powder, dose response (AID 743049); type: functional, cell-based
[11] = system: INS1; assay: INS-1E survival protection against cytokine death – cell-based, luminescence, retest, dose response (AID 449756); type: functional; conditions: Rattus norvegicus;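 further: cell death triggered by IL-1 beta plus TNF-alpha plus IFN-gamma mixture; protective hits raise ATP signal compared with cytokine alone wells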
[12] = reduction of Shn3 3'UTR-driven luciferase in osteoblasts – cell-based, Clone20 osteoblasts, firefly luciferase, cherry-picked, dose response (AID 624132); type: functional;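 further: firefly luciferase luminescence from reporter carrying the Shn3 3'UTR in osteoblasts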
[13] = loss of viability in HepG2 cells – cell-based, CellTiter-Glo, cherry-picked, cytotoxicity control for Shn3 inhibitor project, dose response (AID 624134); type: functional
[14] = non-specific 3'UTR reporter inhibition in Clone20-Shn3RL – cell-based, Renilla luciferase, cherry-picked, counter-screen for Shn3 inhibitor project, dose response (AID 624133); type: functional
[15] = system: BHK-21; assay: viability loss in BHK-21 cells – cell-based, plate reader, cherry-pick samples, cytotoxicity control, dose response (AID 687030); type: functional; conditions: Mesocricetus auratus
[16] = system: A549; assay: viability loss in A549 cells – cell-based, plate reader, cherry-pick samples, cytotoxicity control, dose response (AID 687028); type: functional; conditions: Homo sapiens
[17] = Late stage assay provider results from the probe development effort to identify selective inhibitors of heat shock protein 90 (HSP90): Absorbance-based cell proliferation assay in SKBR3 cells.; type: functional; conditions: SK-BR-3
[18] = Late stage assay provider results from the probe development effort to identify selective inhibitors of heat shock protein 90 (HSP90): Absorbance-based cell proliferation assay in MCF7 cells.; type: functional
[19] = A549 cell cytotoxicity, dose response, cytotoxicity control, plate reader, cherry-pick, antagonist series (AID 743412); type: functional, cell-based
[20] = inhibition of bursicon-driven LGR2 cAMP signaling – cell-based, HEK293, CRE-luciferase reporter, cherry pick, dose response (AID 743342); type: functional
[21] = blockade of melanocortin 4 receptor signaling – cell-based, plate reader, cherry pick, counter-screen for LGR2 antagonist project, dose response (AID 743444); type: functional;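 further: transfected HEK 293 cells stimulated with alpha-MSH peptide; potency of inhibitors of the alpha-MSH evoked signal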
[22] = system: HeLa; assay: viability loss in HeLa cells – cell-based, ATP luminescence, cherry-pick samples, cytotoxicity control, dose response (AID 687004); type: functional; conditions: Homo sapiens
[23] = system: HEK293; assay: viability loss in HEK293T cells – cell-based, ATP luminescence, cherry-pick samples, cytotoxicity control, dose response (AID 687005); type: functional; conditions: Homo sapiens;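 further: cells exposed to compound for 48 hours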
[24] = HEK293 Cytotoxicity Assay Measured in Cell-Based System Using Plate Reader - 7071-01_Inhibitor_Dose_CherryPick_Activity_Set2.; type: functional
[25] = molecular target: Disintegrin and metalloproteinase domain-containing protein 17 (Homo sapiens, UniProt P78536); assay: exosite inhibitors of ADAM17, dose response, biochemical (AID 743260)
[26] = inhibition of ADAM10 peptide cleavage – biochemical, FRET peptide substrate, recombinant human ADAM10, selectivity assay for ADAM17 exosite inhibitor project, dose response (AID 743259);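 further: ADAM10 enzyme cleaving a FRET peptide substrate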
[27] = molecular target: Metabotropic glutamate receptor 3 (Rattus norvegicus, UniProt P31422); assay: inhibitors of rat mGlu3 Galpha15 signaling – TREx293 cells, calcium flux, mGlu3 NAM project, dose response (AID 651840); type: functional
[28] = NIH-3T3 fibroblast cytotoxicity, dose response, cytotoxicity control, cell-based, fluorescence, Alamar Blue, secondary assay (AID 2327); type: functional;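 further: NIH-3T3 mouse fibroblasts cultured with fluconazole at 8 µg/mL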
[29] = fluconazole-exposed Candida albicans growth modulators – fluorescence, retest, confirmation (AID 2467); type: functional, cell-based
[30] = Luminescence Cell-Based Dose Retest to Confirm Inhibitors of Cancer Stem Cells. [Related pubchem assays (depositor defined):AID2717, AID2721]; type: functional, Homo sapiens; conditions: Homo sapiens
[31] = HGIII-sPLA2 enzyme inhibition potency – biochemical, QFRET, IC50, dose response (AID 743457);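 further: green fluorescence rise as the enzyme cleaves BODIPY PC-A2 in liposomes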
[32] = toxicity toward immortalized ovarian surface epithelium – cell-based, plate reader, dry powder samples, cytotoxicity control for PAX8 inhibitor project, dose response (AID 743045); type: functional
[33] = A2780 cell killing – plate reader, dry powder samples, cytotoxicity control, dose response (AID 743046); type: functional, cell-based
[34] = CMV-driven luciferase expression suppression in HEK293 – cell-based, luminescence, dry powder, counter-screen for Pax8 inhibitor project, dose response (AID 743020); type: functional
[35] = general cell-killing toxicity readout – plate reader, dry powder samples, cytotoxicity control for PAX8 inhibitor project, dose response (AID 743021); type: functional, cell-based
[36] = molecular target: T1, Mannose-6-phosphate isomerase (Homo sapiens, UniProt P34949); assay: MPI enzyme activity inhibition – biochemical, fluorescence intensity, coupled assay, primary screen (AID 1209)
T1 sequence (P34949 whole entry): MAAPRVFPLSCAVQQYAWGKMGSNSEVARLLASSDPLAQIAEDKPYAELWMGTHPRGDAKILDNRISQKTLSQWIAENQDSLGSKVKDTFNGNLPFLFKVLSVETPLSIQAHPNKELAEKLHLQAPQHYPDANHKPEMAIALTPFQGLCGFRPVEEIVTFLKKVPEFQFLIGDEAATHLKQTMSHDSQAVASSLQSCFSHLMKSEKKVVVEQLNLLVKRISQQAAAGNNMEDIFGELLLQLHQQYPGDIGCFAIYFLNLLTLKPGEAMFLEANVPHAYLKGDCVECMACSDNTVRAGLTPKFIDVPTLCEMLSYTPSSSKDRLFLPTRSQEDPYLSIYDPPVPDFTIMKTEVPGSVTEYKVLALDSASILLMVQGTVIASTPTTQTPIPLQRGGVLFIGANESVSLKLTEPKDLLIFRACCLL

[37] = system: T-cell; assay: loss of vesicle association with mouse CD8+ T cells – mouse 2C CD8+ T cells, flow cytometry, dose response (AID 485284); type: functional
[38] = molecular target: Kallikrein-7 (Homo sapiens, UniProt P49862); assay: Fluorescence Intensity-based biochemical primary high throughput dose response assay to identify activators of kallikrein-7 (K7) zymogen.
[39] = optical artefact potency, substrate without enzyme – biochemical, fluorescence intensity, triplicate, artefact control for kallikrein-7 zymogen activator project, dose response (AID 720493)
[40] = molecular target: Potassium channel subfamily K member 9 (Homo sapiens, UniProt Q9NPC2); assay: KCNK9 flux blockade, concentration-response – cell-based, FluxOR thallium flux, selectivity assay for TASK1 inhibitor project, SAR follow-up (AID 652211); type: functional;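 further: potency is for inhibitors of the channel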
[41] = molecular target: Potassium channel subfamily K member 3 (Rattus norvegicus, UniProt O54912); assay: SAR analysis for the identification of selective inhibitors of the two-pore domain potassium channel TASK1(KCNK3):Automated Electrophysiology.; type: functional
[42] = molecular target: Potassium channel subfamily K member 3 (Homo sapiens, UniProt O14649); assay: inhibition of human KCNK3 channel flux – CHO cells, FluxOR thallium flux, SAR follow-up (AID 652212); type: functional
[43] = Cytotoxicity screening for potential Inhibitors of Bacterial Capsule Biogenesis (4).; type: functional
[44] = T. cruzi growth inhibition in host cells, dose response, cell-based, plate reader, dry powder, set 2 (AID 652275); type: functional
[45] = anti-trypanosomal activity in BESM host cells – imaging, CA-I/72 strain, bovine embryo skeletal muscle, dry powder, dose response (AID 651885); type: functional, cell-based
[46] = molecular target: Protein Wnt-3a (Mus musculus, UniProt P27467); assay: SAR analysis of small molecule antagonists of Gli-SUFU in a Wnt3a luminescent reporter assay.; type: functional
[47] = kidney cell line viability loss – HEK293T, luminescence plate reader, powder samples, set 4, cytotoxicity control, dose response (AID 651863); type: functional, cell-based; conditions: HEK293

Paired box protein Pax-8, sequence (Q06710 whole entry): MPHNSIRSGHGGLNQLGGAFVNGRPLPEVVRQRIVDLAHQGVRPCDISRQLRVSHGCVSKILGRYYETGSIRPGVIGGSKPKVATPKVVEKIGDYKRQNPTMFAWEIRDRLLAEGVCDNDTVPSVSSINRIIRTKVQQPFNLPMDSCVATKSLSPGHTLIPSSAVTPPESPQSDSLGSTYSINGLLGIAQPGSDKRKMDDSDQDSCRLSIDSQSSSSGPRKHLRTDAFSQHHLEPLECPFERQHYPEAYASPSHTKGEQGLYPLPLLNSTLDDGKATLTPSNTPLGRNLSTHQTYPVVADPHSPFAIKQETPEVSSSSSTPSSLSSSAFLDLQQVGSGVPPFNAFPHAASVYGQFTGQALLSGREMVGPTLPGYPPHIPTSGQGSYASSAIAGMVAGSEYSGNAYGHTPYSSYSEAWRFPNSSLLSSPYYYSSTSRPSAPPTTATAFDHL
Potassium channel subfamily K member 3 (Homo sapiens, UniProt O14649), sequence (O14649 whole entry): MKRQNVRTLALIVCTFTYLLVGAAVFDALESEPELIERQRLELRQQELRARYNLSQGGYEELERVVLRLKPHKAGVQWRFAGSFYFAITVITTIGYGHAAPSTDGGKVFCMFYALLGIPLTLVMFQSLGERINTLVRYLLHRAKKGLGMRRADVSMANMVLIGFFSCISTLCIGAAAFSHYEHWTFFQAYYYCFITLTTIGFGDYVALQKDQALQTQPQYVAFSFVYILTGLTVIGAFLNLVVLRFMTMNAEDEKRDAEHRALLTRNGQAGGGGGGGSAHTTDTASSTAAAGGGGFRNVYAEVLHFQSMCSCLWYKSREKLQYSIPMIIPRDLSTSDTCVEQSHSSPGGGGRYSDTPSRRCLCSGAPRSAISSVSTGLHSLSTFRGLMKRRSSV
Disintegrin and metalloproteinase domain-containing protein 17, sequence (P78536 whole entry, the tested form may be a part): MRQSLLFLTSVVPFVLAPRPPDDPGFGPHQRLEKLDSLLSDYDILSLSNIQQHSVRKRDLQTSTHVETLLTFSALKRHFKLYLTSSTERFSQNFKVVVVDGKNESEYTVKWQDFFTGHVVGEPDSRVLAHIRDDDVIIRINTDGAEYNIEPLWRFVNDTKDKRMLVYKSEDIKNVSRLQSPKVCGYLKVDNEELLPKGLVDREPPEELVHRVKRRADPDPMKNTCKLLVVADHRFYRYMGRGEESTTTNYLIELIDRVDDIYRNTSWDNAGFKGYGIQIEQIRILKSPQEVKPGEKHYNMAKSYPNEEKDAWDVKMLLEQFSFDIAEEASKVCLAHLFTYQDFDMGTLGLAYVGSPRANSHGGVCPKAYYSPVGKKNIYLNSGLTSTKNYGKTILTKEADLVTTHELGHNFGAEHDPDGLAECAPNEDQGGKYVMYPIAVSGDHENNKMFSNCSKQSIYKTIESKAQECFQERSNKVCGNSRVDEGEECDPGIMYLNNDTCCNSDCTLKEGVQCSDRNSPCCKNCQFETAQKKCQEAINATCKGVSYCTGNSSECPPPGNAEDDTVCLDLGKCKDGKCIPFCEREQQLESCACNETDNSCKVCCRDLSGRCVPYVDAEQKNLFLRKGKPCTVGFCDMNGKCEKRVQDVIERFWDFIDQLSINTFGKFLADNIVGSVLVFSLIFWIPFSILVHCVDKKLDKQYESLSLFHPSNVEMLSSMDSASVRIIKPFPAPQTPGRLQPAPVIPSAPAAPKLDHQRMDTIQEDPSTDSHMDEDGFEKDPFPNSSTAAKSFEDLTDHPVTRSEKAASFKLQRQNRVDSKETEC
Potassium channel subfamily K member 3 (Rattus norvegicus, UniProt O54912), sequence (O54912 whole entry, the tested form may be a part): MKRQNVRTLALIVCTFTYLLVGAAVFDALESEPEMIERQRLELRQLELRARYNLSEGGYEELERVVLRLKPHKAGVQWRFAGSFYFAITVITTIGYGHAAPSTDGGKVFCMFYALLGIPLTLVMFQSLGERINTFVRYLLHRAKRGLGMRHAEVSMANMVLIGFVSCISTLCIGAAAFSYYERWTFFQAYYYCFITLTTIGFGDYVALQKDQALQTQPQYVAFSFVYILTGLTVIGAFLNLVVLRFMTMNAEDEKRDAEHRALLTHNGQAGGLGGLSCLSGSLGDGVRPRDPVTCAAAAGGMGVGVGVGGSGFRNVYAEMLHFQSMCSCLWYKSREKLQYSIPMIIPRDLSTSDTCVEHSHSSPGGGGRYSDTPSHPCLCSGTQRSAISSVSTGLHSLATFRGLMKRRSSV
Potassium channel subfamily K member 9, sequence (Q9NPC2 whole entry, the tested form may be a part): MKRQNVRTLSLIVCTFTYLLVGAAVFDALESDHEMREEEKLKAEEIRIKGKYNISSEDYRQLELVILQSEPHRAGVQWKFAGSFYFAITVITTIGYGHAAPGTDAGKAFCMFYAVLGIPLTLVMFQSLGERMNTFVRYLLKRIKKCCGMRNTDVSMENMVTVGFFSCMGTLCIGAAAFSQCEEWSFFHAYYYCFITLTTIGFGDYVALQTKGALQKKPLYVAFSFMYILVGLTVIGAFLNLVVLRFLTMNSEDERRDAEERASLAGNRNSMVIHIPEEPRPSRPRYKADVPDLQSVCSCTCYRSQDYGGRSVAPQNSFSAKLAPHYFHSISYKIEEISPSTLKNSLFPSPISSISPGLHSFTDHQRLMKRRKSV
Protein Wnt-3a, sequence (P27467 whole entry): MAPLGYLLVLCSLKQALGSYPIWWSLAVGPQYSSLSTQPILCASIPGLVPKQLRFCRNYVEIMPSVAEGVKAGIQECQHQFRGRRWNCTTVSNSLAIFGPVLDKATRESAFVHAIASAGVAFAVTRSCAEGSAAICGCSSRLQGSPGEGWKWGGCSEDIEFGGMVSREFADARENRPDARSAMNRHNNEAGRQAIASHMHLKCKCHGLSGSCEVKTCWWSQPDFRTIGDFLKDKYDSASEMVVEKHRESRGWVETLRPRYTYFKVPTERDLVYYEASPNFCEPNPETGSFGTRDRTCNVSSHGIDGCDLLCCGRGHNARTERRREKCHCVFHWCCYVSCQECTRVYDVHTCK
Kallikrein-7, sequence (P49862 whole entry): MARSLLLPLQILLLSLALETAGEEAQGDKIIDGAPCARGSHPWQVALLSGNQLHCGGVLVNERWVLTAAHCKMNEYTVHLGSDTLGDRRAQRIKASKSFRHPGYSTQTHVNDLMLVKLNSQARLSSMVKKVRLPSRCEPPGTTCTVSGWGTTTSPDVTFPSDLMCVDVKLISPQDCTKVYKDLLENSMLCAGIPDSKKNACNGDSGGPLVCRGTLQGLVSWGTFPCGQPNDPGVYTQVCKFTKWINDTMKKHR
Metabotropic glutamate receptor 3, sequence (P31422 whole entry): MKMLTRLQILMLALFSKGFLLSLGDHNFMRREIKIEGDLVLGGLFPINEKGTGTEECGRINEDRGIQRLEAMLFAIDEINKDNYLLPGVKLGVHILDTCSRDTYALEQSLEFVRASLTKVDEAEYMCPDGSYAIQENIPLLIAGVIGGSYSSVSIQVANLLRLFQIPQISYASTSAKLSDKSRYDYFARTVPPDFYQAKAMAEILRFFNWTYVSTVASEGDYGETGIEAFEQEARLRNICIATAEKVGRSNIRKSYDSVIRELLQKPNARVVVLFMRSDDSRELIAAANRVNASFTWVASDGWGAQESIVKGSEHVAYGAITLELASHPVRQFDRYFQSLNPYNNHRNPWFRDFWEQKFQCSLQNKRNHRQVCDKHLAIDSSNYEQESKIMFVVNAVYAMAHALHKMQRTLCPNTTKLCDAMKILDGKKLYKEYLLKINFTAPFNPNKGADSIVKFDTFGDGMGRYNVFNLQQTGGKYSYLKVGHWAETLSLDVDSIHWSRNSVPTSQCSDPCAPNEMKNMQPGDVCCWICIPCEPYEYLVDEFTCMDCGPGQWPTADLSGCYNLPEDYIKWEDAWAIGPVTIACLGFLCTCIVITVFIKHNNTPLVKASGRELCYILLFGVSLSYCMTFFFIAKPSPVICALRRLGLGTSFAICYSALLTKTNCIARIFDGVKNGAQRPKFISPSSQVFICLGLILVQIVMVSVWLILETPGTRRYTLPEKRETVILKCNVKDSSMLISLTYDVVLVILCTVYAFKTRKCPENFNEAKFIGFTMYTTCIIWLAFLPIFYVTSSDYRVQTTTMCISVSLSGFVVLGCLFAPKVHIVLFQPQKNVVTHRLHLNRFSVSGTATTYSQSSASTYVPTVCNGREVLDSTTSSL

Structure (SMILES): COc1ccccc1C#Cc1ccc2c(c1)O[C@@H](CN(C)Cc1ccncc1)[C@H](C)CN([C@H](C)CO)S2(=O)=O
AC50 [1]: 42.1 µM (active)
AC50 [2]: 2.39 µM (active)
AC50 [3]: 2.28 µM (active)
AC50 [4]: 13.3 µM (active)
AC50 [5]: 9.35 µM (active)
AC50 [6]: 11.5 µM (active)
AC50 [7]: 0.0946 nM (active)
AC50 [8]: 7.34 µM (active)
AC50 [9]: 27.7 µM (active)
AC50 [10]: 4.51 µM (active)

Structure (SMILES): CC(=O)NC(c1cc(Cl)c2cccnc2c1O)C(C)C (stereo not given)
AC50 [11]: 1.76 µM (active)
AC50 [12]: 2.96 µM (active)
AC50 [13]: 5.13 µM (active)
AC50 [14]: 2.71 µM (active)
AC50 [15]: 21.6 µM (active)
AC50 [16]: 23.5 µM (active)

Structure (SMILES): Cc1c(Cl)c(=O)oc2c(C)c(OCc3ccccc3)ccc12
IC50 [17]: > 100 µM (inactive)
IC50 [18]: > 100 µM (inactive)

Structure (SMILES): C[C@H](CO)N1C[C@H](C)[C@H](CN(C)C(=O)Nc2ccccc2)OCCCC[C@H](C)Oc2ccc(NC(=O)Nc3ccc4c(c3)OCO4)cc2C1=O
AC50 [19]: > 52 µM (inactive)
AC50 [20]: 36.6 µM (active)
AC50 [21]: 25.4 µM (active)

Structure (SMILES): O=S(=O)(c1ccc(F)cc1)N1C[C@@H]2[C@H](c3ccccc31)[C@@H](CO)N2Cc1ccccc1Cl
AC50 [22]: > 47 µM (inactive)
AC50 [23]: 18.9 µM (active)
AC50 [24]: 18.9 µM (active)

IC50 [25]: > 69.5 µM (inactive)
Structure (SMILES): CCOC(=O)c1c(NC(=O)Cn2nc(C(F)F)cc2C(F)F)sc(C)c1C
IC50 [26]: > 69.5 µM (inactive)

IC50 [27]: 8.95 µM
Structure (SMILES): COc1ccc(C#Cc2ccc(C(=O)N3CCC(=O)C(C)C3)cc2)cc1 (stereo not given)

Structure (SMILES): Cc1cc(C)c2nc(NNC(=O)c3cc(-c4cccs4)nc4ccccc34)sc2c1
EC50 [28]: 10.7 µM (active)
EC50 [29]: > 38 µM (not active)
AC50 [30]: 2.13 µM (active)
IC50 [31]: 53.9 µM (inactive)

Structure (SMILES): C[C@@H]1CN([C@H](C)CO)C(=O)c2cc(NC(=O)Nc3ccccc3)ccc2O[C@@H](C)CCCCO[C@@H]1CN(C)Cc1ccc(Cl)c(Cl)c1
AC50 [2]: 4.45 µM (active)
AC50 [32]: 44.5 µM (active)
AC50 [33]: 14.9 µM (active)
AC50 [34]: 43.4 µM (active)
AC50 [4]: 18.4 µM (active)
AC50 [35]: 52.3 µM (active)
AC50 [9]: 29.6 µM (active)

Structure (SMILES): Cc1c2cccn2cc[n+]1C
IC50 [36]: > 50 µM (not active)
EC50 [37]: 79.2 µM (inactive)
EC50 [38]: 17.5 µM (inactive)
EC50 [39]: > 7.72 µM (active)

IC50 [40]: 0.36 µM (active)
IC50 [41]: 0.075 µM (active)
IC50 [42]: 0.015 µM (active)
Structure (SMILES): Cc1cccc(C(=O)Nc2cccc(NC(=O)c3ccccc3)c2)c1

Structure (SMILES): CC(C)(C)OC(=O)Nc1nc2ccc(C(=O)Nc3ccnc(Br)c3)cc2s1
CC50 [43]: > 300 µM (inactive)

Structure (SMILES): C[C@@H]1CN([C@@H](C)CO)C(=O)c2cc(-c3cncnc3)cnc2O[C@H]1CN(C)Cc1ccc(Oc2ccccc2)cc1
AC50 [44]: 0.403 µM (active)
IC50 [45]: > 20 µM (inactive)

IC50 [46]: > 21.8 µM (inactive)
Structure (SMILES): CC(C)CNc1cc(NC(=O)c2cccc(F)c2)ncn1

Structure (SMILES): Cc1ccc(S(=O)(=O)NNc2nc(NCC(N)=O)nc3ccccc23)cc1
AC50 [47]: > 52 µM (inactive)
